Experiments:
[1] = 1.25 mg/kg body weight over 3 hours; 8 of 73 patients; cited from earlier work
[2] = in vivo; cited from earlier work
[3] = target: t-PA (Homo sapiens, UniProt P00750); conditions: cited from earlier work
[4] = target: T1, TNKase® (Homo sapiens, UniProt P00750, H332A/K331A/N152Q/R333A/R334A/T138N); experiment: Cleavage of soluble peptides in plasma plus TNKase®, fluorescence plate reader; type: biochemical
T1 construct: Activase® is a purified glycoprotein of 527 amino acids produced by recombinant DNA technology; purchased Genentech; host or cells: Chinese Hamster Ovary cells
T1 sequence (P00750 36-562 T138N/N152Q/K331A/H332A/R333A/R334A): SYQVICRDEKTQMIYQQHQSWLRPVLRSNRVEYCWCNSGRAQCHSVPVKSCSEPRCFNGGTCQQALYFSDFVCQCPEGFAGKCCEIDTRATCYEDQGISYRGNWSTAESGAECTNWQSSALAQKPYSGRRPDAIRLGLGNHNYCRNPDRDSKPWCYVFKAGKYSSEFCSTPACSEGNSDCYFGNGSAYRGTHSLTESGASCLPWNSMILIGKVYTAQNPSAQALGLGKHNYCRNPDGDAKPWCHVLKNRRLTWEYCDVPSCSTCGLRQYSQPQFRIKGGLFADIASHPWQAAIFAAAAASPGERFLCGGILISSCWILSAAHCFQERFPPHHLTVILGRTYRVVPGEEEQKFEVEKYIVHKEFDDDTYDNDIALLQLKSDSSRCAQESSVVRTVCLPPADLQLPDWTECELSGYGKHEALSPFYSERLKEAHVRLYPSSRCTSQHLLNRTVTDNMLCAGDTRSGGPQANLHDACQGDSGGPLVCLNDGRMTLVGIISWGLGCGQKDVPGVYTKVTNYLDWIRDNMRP
Method: (§1) The peptides in Table 3 were re-synthesized in soluble form with nitrotyrosine (Y(NO2) at the N-terminus and Abz at the ε-amino group of the lysine residue (k(Abz)) at the C-terminus. They were then incubated with human plasma alone or plasma plus TNKase® in a 96-well plate and the cleavage reaction was monitored over a period of time with a fluorescent plate reader. Each well contained 90 μM of peptides, 10 μl of plasma in PBS, ph 7.2, with or without 1 μg of TNKase®, in a final volume of 100 μl. Cleavage was measured as fluorescence intensity at different time intervals in the fluorescence plate reader at 360/440 nm excitation and emission range.

[5] = Cleavage of soluble peptides in human plasma alone, fluorescence plate reader; type: in vitro ADME; conditions: 90 μM peptide, 10 μl plasma in PBS pH 7.2, without TNKase®
Method: as §1

t-PA, sequence (P00750 36-562, species assumed): as the sequence (P00750 36-562 T138N/N152Q/K331A/H332A/R333A/R334A) above, with N103T, Q117N, A296K, A297H, A298R, A299R counted along it

Substance: Activase®: purified recombinant t-PA glycoprotein of 527 amino acids, from Genentech
- patients with a decrease in fibrinogen to below 100 mg/dl [1]: 11%
- initial plasma half-life [2]: 5 min
- plasma clearance [2]: 380 to 570 mL/min

Substance: GGSG PFGR↓SA LVPEE
- hydrolysis efficiency by t-PA versus a peptide of similar length from the native cleavage site of plasminogen [3]: 5000 fold

Substance: rqYKYkf [compound 20]
- time to complete degradation by TNKase® ([4]; 10 μg/ml TNKase®): ≤ 2 h
- degradation on incubation with TNKase® ([4]; 10 μg/ml TNKase®, two hours): completely degraded
- susceptibility to TNKase® cleavage ([4]; plasma plus TNKase®): rapidly degraded
- stability / cleavage in human plasma [5]: completely stable

— US20050255042A1, “On-demand cleavable linkers for radioconjugates for cancer imaging and therapy” (The Regents of the University of California Office of …, priority 2003, published 2005)
